Measurements reported in patent US10206867B2, “Alcoholic extract of aerial parts of Solidago virgaurea subsp. alpestris, method of production thereof, and cosmetic or dermatological composition containing it” (CHANEL PARFUMS BEAUTE, priority 2015, dated 2019).

Experiments:
[1] = test system: Primary human keratinocytes (KC); assay: Primary human keratinocytes (KC) under Paraquat stress: cell counts and qPCR of MMP1, p16INK4a; type: cell-based; conditions: for Mean number of cells counted, corrected for the cell division factor: 37500 cells seeded on day 0
Method: Primary human keratinocytes derived from neonatal foreskin of individual donors (KC) were purchased from CellSystems (Troisdorf, Germany) and cultured in a KC growth medium (KGM, Clonetics, Gaithersburg, USA) supplemented with 0.1 ng/ml of recombinant human EGF, 5 μg/ml insulin, 0.5 μg/ml of hydrocortisone, 0.4% of bovine pituitary extract, 50 μg/ml of gentamicin and 50 ng/ml of amphotericin B. The RNA was isolated using the RNeasy 96 system ([…]), and 900 ng of total RNA was reverse-transcribed with the iScript cDNA Synthesis Kit (Biorad). qPCR was performed using the LightCycler 480 and the LightCycler 480 SYBR Green I Master (Roche, Basle, Switzerland). Expression of the target genes was normalized relative to expression of β-2 microglobulin. The sequences of the primers are as follows (5′-3′): B2Mf […] (SEQ ID NO:11); B2Mr: […] (SEQ ID NO:12);
The cells are seeded for the stress experiments on day 0 at 1500 cells/cm^2 and treated on days 2, 5 and 6 with Paraquat (PQ) (80 μm) for 24 hours. Treatment with Goldenrod was carried out on days 1 and 4 on untreated cells or cells treated with Paraquat.

[2] = target: T1, MMP3 (Homo sapiens, UniProt P08254); assay: MMP3 activity by fluorometric assay; type: biochemical; conditions: 5 mM; percentage activity relative to untreated control (100%)
T1 construct: purchased Biomol SE-109
Method: (§1) To evaluate the effect of Goldenrod on the activity of MMP3 and MMP9, the enzymes (Biomol SE-109 and SE-244, respectively) were incubated with different concentrations of Goldenrod, each concentration in quintuplicate. The enzymatic reaction was induced by adding the fluorescent substrate specific to each MMP enzyme, dissolved in DMSO (Bachem H-2300, M-2055). The enzymatic reaction was monitored by spectrophotometry for one hour and the fluorescence was measured after excitation/emission at wavelengths of 360/460 nm for MMP3, or 320/405 nm for MMP9. The results are expressed as the mean of the replicates ±SD and are shown in […] activity of the MMPs relative to the untreated control, which represents 100%. As control, EDTA was used for inhibiting the activity of the MMPs.

[3] = target: T2, MMP9 (Homo sapiens, UniProt P14780); assay: MMP9 activity by fluorometric assay; type: biochemical; conditions: 5 mM; percentage activity relative to untreated control (100%)
T2 construct: purchased Biomol SE-244
Method: as §1

[4] = Antioxidant activity, pholasin ABEL chemiluminescence test, hydroxyl radicals; type: biochemical
Method: (§2) To determine the capacity of Goldenrod for trapping free radicals (hydroxyls, halogenated derivatives, peroxynitrites and superoxide radicals), i.e. its antioxidant capacity, chemiluminescence tests dependent on pholasin ABEL®1 were used (Knight Scientific Limited) according to the manufacturer's instructions. Briefly, various concentrations of ingredients were incubated with pholasin, a well known photoprotein that emits light when it binds to free radicals. D-Mannitol, albumin, vitamin E and L-ascorbic acid were used as positive controls for determining the capacity of the extract for trapping hydroxyl radicals, halogenated derivatives, peroxynitrites and superoxides, respectively.
All the determinations were repeated 5 times and the mean values were determined. The antioxidant capacity of the ingredient is expressed as the percentage reduction of the luminescence peak of Pholasin observed during the assay in the presence and in the absence of the active ingredient ±SD, with the untreated control represented at 0%.

[5] = Antioxidant activity, pholasin ABEL chemiluminescence test, superoxides; type: biochemical
Method: as §2, with “respectively. […] The antioxidant capacity of the ingredient is expressed as the percentage reduction of the luminescence peak of Pholasin observed during the assay in the presence and in the absence of the active ingredient ±SD, with the untreated control represented at 0%.” for “respectively.”

T2 sequence (P14780 107-444 limits assumed): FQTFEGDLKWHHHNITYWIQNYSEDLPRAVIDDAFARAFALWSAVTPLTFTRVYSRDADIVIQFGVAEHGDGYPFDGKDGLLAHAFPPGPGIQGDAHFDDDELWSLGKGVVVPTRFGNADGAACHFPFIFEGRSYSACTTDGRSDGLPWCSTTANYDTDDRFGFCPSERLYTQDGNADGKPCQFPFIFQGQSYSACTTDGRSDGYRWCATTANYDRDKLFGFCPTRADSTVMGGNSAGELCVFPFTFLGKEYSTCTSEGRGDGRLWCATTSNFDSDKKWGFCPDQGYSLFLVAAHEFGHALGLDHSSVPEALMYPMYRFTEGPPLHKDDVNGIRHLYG
T1 sequence (P08254 100-272 limits assumed): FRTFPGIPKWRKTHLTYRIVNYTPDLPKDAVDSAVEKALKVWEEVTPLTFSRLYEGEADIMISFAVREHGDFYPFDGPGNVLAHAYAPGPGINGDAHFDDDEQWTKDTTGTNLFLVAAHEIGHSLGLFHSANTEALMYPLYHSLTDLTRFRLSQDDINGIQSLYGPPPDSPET

With `C[n+]1ccc(-c2cc[n+](C)cc2)cc1` [Paraquat] the “Mean number of cells counted, corrected for the cell division factor” value ([1]; D3, single treatment) was 405,000 cells, the “Mean number of cells counted, corrected for the cell division factor” value ([1]; D7, single treatment) was 546,666 cells and the “Expression of MMP1” value ([1]; treatment with Paraquat alone) was “induces”. For the same molecule, the “Expression of p16INK4a” value ([1]; treatment with Paraquat alone) was “induces”.
In the case of `O=C(O)CN(CCN(CC(=O)O)CC(=O)O)CC(=O)O` [EDTA], the “Enzyme activity MMP3” value [2] is reported as 4.3 ± 5.3% and the “Enzyme activity MMP9” value [3] is reported as 0 ± 0.9%.
Molecule `OC[C@@H](O)[C@@H](O)[C@H](O)[C@H](O)CO` [D-Mannitol] has a Mean % inhibition ([4]; 0.8 mM) of 59.9 ± 3.6%, a Mean % inhibition ([4]; 1 mM) of 76.1 ± 14% and a Mean % inhibition ([4]; 2 mM) of 82.6 ± 14.8%. For the same molecule, the Mean % inhibition ([4]; 4 mM) was 92.6 ± 4.7% and the Mean % inhibition ([4]; 6 mM) was 95.1 ± 0.3%.
`O=C1O[C@H]([C@@H](O)CO)C(O)=C1O` [L-ascorbic acid] showed a Mean % inhibition ([5]; 10 μmol/L) of 26.4 ± 3.5%, a Mean % inhibition ([5]; 20 μmol/L) of 43.9 ± 1.4% and a Mean % inhibition ([5]; 40 μmol/L) of 64.8 ± 0.8%. For the same molecule, the Mean % inhibition ([5]; 60 μmol/L) was 75.3 ± 1% and the Mean % inhibition ([5]; 80 μmol/L) was 82.4 ± 1.8%.
